Results reported in patent publication US20220282217A1, “COMPOSITIONS AND METHODS FOR PREPARING T CELL COMPOSITIONS AND USES THEREOF” (priority 2019, published 2022).
Where two headings read alike, the source gives them in different places. Where a SMILES comes first, the peptide text is derived from it.

What was measured:
[1] = system: 293T cells transduced with GATA3 neoORF, expressing the HLA of interest; experiment: Presentation of GATA3 neoantigens: HLA-eluted peptides by targeted MS/MS (PRM) (Table 14); format: cell-based, human
Experimental: To assess whether antigens could be processed and presented from the larger polypeptide context, peptides eluted from HLA molecules isolated from cells expressing the genes of interest were analyzed by tandem mass spectrometry (MS/MS).
Between 50 and 700 million of the transduced cells expressing peptides encoded by the GATA3 neoORF sequence were cultured and peptides were eluted from HLA-peptide complexes using an acid wash. Eluted peptides were then analyzed by targeted MS/MS using PRM. Spectral comparison between peptides derived from GATA3 neoORF and corresponding synthetic peptides were performed to confirm each detection.

HLA-A02.01 [2] = target: HLA-A02.01 (Homo sapiens, UniProt P04439, D140Y/D185E/D98H/E176V/E277Q/G131W/G231S/I119V/I121R/I166T/I218V/L300P/L318F/N151K/N90K/P208A/P217A/Q86G/Q94H/R138H/R169H/T345S); experiment: Class I MHC peptide binding affinity (displacement of radiolabeled reference peptide); conditions: (nM)), allele A02.01
Procedure, shortened: (§1)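 Displacement format in which varying amounts of peptide compete for 2 days with a radiolabeled reference ligand prebound to class I MHC, residual complex-associated label being measured after gel-filtration separation.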

HLA-B08.01 [3] = target: T1, HLA-B08.01 (Homo sapiens, UniProt P01889, A93T/A95T/D138N/E176V/E187T/K202T/Q94N/R180D/S35A/V36M/Y33D/Y91F); experiment: as above
Procedure, shortened: as §1

HLA-A24.02 [4] = experiment: Class I MHC peptide binding stability (pMHC-I dissociation, 125I-labeled light chain); parameters: species or system human; conditions: allele A24.02
HLA-A24.02 [5] = experiment: Class I MHC peptide binding affinity (displacement of radiolabeled reference peptide); parameters: species or system human; conditions: allele A24.02; read-out: Observed Affinity (IC50; (nM))
HLA-B08.01 [6] = target: T1, HLA-B08.01; experiment: Class I MHC peptide binding stability (pMHC-I dissociation, 125I-labeled light chain); conditions: Allele B08.01
HLA-A02.01 [7] = target: T2, HLA-A02.01 (Homo sapiens, UniProt P04439, D140Y/D185E/D98H/E176V/E277Q/G131W/G231S/I119V/I121R/I166T/I218V/N151K/N90K/P208A/P217A/Q86G/Q94H/R138H/R169H); experiment: as above; conditions: allele A02.01
T2 construct: made in house; host or cells: E. coli

HLA-A03.01 [8] = target: T3, HLA-A03.01 (Homo sapiens, UniProt P04439); experiment: as above; parameters: made in house; host or cells: E. coli; conditions: allele A03.01
HLA-A03.01 [9] = target: T3, HLA-A03.01; experiment: Class I MHC peptide binding affinity (displacement of radiolabeled reference peptide); conditions: allele A03.01, (nM))
HLA-B07.02 = HLA-B07.02 (Homo sapiens, UniProt P01889); experiment: Class I MHC peptide binding stability (pMHC-I dissociation, 125I-labeled light chain); parameters: made in house; host or cells: E. coli; conditions: Allele B07.02
HLA-A11.01 = HLA-A11.01 (Homo sapiens, UniProt P04439, A114D/D185E/E176A/F33Y/L180Q/S129P/T187R); experiment: Class I MHC peptide binding affinity (displacement of radiolabeled reference peptide)
[10] = read-out: Observed Affinity (IC50
[11] = GATA3 neoORF transduced 293T cells expressing HLA-A*02:01 protein
[12] = allele A11.01, read-out: Observed Affinity (IC50, (nM))

CC(C)C[C@H](NC(=O)[C@H](CO)NC(=O)[C@H](CO)NC(=O)[C@H](CCCNC(=N)N)NC(=O)[C@H](CCC(N)=O)NC(=O)[C@H](CC(C)C)NC(=O)[C@@H](NC(=O)[C@H](C)NC(=O)[C@@H](N)Cc1ccccc1)[C@@H](C)O)C(=O)O
detected by mass spectrometry (peptide eluted from HLA-peptide complexes) ([1]; GATA3 neoORF transduced 293T cells expressing HLA-C*03:03 protein): detected

CC(C)C[C@H](NC(=O)[C@H](CO)NC(=O)[C@H](CCCCN)NC(=O)[C@H](CC(C)C)NC(=O)[C@@H](NC(=O)[C@H](CO)NC(=O)[C@@H]1CCCN1C(=O)[C@H](CC(C)C)NC(=O)[C@@H](N)Cc1ccccc1)[C@@H](C)O)C(=O)O
IC50 (HLA-A02.01 [2]; Observed Affinity (IC50): 21 nM
IC50 (HLA-B08.01 [3]): 1970 nM
Stability (T1/2 (h)) (HLA-A24.02 [4]): 1 h
IC50 (HLA-A24.02 [5]): 995 nM

CSCC[C@H](N)C(=O)N[C@@H](CC(C)C)C(=O)N[C@H](C(=O)NCC(=O)N1CCC[C@H]1C(=O)N1CCC[C@H]1C(=O)N[C@@H](C)C(=O)N[C@@H](CCCNC(=N)N)C(=O)N[C@H](C(=O)O)C(C)C)[C@@H](C)O (H-MLTGPPARV-OH; N-terminus and C-terminus assumed)
IC50 (HLA-A02.01 [2]; [10]): 10.6 nM
detected by mass spectrometry (peptide eluted from HLA-peptide complexes) [1, 11]: detected

CC(C)C[C@H](NC(=O)[C@@H]1CCCN1C(=O)[C@H](CS)NC(=O)[C@H](CC(C)C)NC(=O)[C@H](Cc1c[nH]cn1)NC(=O)[C@H](CC(N)=O)NC(=O)CNC(=O)[C@H](CC(C)C)NC(=O)[C@@H](N)CO)C(=O)O
Stability (T1/2 (h)) (HLA-B08.01 [6]): 0.5 h
Stability (T1/2 (h)) (HLA-A02.01 [7]): 3.5 h

CC(C)C[C@H](NC(=O)[C@H](Cc1ccccc1)NC(=O)[C@H](CO)NC(=O)[C@H](CC(C)C)NC(=O)[C@H](CS)NC(=O)[C@H](CO)NC(=O)[C@H](Cc1ccccc1)NC(=O)[C@H](CC(C)C)NC(=O)[C@@H](N)CCCCN)C(=O)O (H-KLFSCLSFL-OH; N-terminus and C-terminus assumed)
IC50 (HLA-A02.01 [2]; [10]): 6 nM
Stability (T1/2 (h)) (HLA-A02.01 [7]): 14.3 h
Stability (T1/2 (h)) (HLA-A03.01 [8]): 0.8 h
IC50 (HLA-A03.01 [9]; [10]): 308 nM

CC[C@H](C)[C@H](NC(=O)[C@H](CCCCN)NC(=O)[C@H](CO)NC(=O)[C@H](CCC(=O)O)NC(=O)[C@H](C)NC(=O)[C@H](CCCCN)NC(=O)[C@H](CC(C)C)NC(=O)[C@H](Cc1ccccc1)NC(=O)[C@H](CCSC)NC(=O)[C@@H](N)Cc1ccc(O)cc1)C(=O)O
Stability (T1/2 (h)) (HLA-B08.01 [6]): 0.4 h
Stability (T1/2 (h)) (HLA-A02.01 [7]): 0.6 h

CSCC[C@H](NC(=O)[C@H](Cc1c[nH]c2ccccc12)NC(=O)[C@H](Cc1c[nH]cn1)NC(=O)[C@H](CC(N)=O)NC(=O)[C@H](CCCNC(=N)N)NC(=O)[C@H](CCCNC(=N)N)NC(=O)[C@H](CCC(N)=O)NC(=O)[C@H](CO)NC(=O)[C@@H]1CCCN1C(=O)[C@@H](N)CC(C)C)C(=O)O
Stability (T1/2 (h)) (HLA-B08.01 [6]): 0.7 h
Stability (T1/2 (h)) (HLA-B07.02): 6.5 h

CC[C@H](C)[C@H](NC(=O)[C@@H](N)CCCCN)C(=O)N[C@@H](CO)C(=O)N[C@@H](CC(N)=O)C(=O)N[C@@H](Cc1c[nH]c2ccccc12)C(=O)N[C@@H](CO)C(=O)N[C@@H](CC(C)C)C(=O)N[C@@H](CCCCN)C(=O)N[C@@H](CCCCN)C(=O)O (H-KISNWSLKK-OH; N-terminus and C-terminus assumed)
IC50 (HLA-A11.01; [12]): 9.8 nM
IC50 (HLA-A03.01 [9]; [10]): 8.8 nM

CSCC[C@H](NC(=O)[C@H](C)N)C(=O)N[C@H](C(=O)N[C@H](C(=O)N[C@@H](CO)C(=O)N[C@@H](CO)C(=O)N[C@@H](CO)C(=O)N[C@@H](CCC(N)=O)C(=O)N[C@@H](CCCCN)C(=O)O)[C@@H](C)O)[C@@H](C)O (H-AMTTSSSQK-OH; N-terminus and C-terminus assumed)
IC50 (HLA-A11.01): 162 nM
IC50 (HLA-A03.01 [9]; Observed Affinity (IC50): 8.3 nM

CC(C)C[C@H](NC(=O)[C@H](C)NC(=O)[C@H](CC(C)C)NC(=O)[C@H](Cc1c[nH]cn1)NC(=O)[C@@H]1CCCN1C(=O)[C@H](CCC(=O)O)NC(=O)[C@@H]1CCCN1C(=O)[C@H](CC(C)C)NC(=O)[C@@H](N)C(C)C)C(=O)O [VLPEPHLAL] (H-VLPEPHLAL-OH; N-terminus and C-terminus assumed)
detected by mass spectrometry (peptide eluted from HLA-peptide complexes) [1, 11]: detected

CC(C)[C@H](NC(=O)[C@@H](N)CCCCN)C(=O)N[C@@H](CO)C(=O)N[C@@H](CCCNC(=N)N)C(=O)N[C@@H](CCC(=O)O)C(=O)N[C@@H](CC(N)=O)C(=O)N[C@H](C(=O)N[C@@H](CO)C(=O)N1CCC[C@H]1C(=O)N[C@@H](CCCCN)C(=O)O)[C@@H](C)O (H-KVSRENTSPK-OH; N-terminus and C-terminus assumed)
Stability (T1/2 (h)) (HLA-A03.01 [8]): 13.5 h
IC50 (HLA-A03.01 [9]; [10]): 7 nM

CC[C@H](C)[C@H](NC(=O)[C@H](CCCCN)NC(=O)[C@H](CO)NC(=O)[C@@H](N)CCC(=O)O)C(=O)N[C@@H](CCSC)C(=O)N[C@@H](Cc1ccccc1)C(=O)N[C@@H](C)C(=O)N[C@H](C(=O)N[C@@H](CC(C)C)C(=O)O)[C@@H](C)O
detected by mass spectrometry (peptide eluted from HLA-peptide complexes) ([1]; GATA3 neoORF transduced 293T cells expressing HLA-B*08:01 protein): detected

CSCC[C@H](NC(=O)[C@@H](NC(=O)[C@H](Cc1ccc(O)cc1)NC(=O)[C@H](C)NC(=O)[C@H](CCSC)NC(=O)[C@@H](NC(=O)[C@@H](N)Cc1ccc(O)cc1)C(C)C)C(C)C)C(=O)N[C@@H](C)C(=O)NCC(=O)O
Stability (T1/2 (h)) (HLA-B08.01 [6]): 1.2 h
IC50 (HLA-A02.01 [2]; [10]): 11500 nM
Stability (T1/2 (h)) (HLA-A02.01 [7]): 2.5 h

CC[C@H](C)[C@H](NC(=O)[C@H](CC(N)=O)NC(=O)[C@H](CCSC)NC(=O)[C@H](Cc1c[nH]cn1)NC(=O)[C@H](CC(N)=O)NC(=O)CNC(=O)[C@H](CC(C)C)NC(=O)[C@@H](N)Cc1ccc(O)cc1)C(=O)N[C@@H](C)C(=O)O (H-YLGNHMNIA-OH; N-terminus and C-terminus assumed)
IC50 (HLA-A02.01 [2]; Observed Affinity (IC50): 117 nM
IC50 (HLA-B08.01 [3]): 872 nM
Stability (T1/2 (h)) (HLA-A02.01 [7]): 0.6 h

CSCC[C@H](NC(=O)[C@@H](N)CO)C(=O)N[C@@H](CC(C)C)C(=O)N[C@H](C(=O)NCC(=O)N1CCC[C@H]1C(=O)N1CCC[C@H]1C(=O)N[C@@H](C)C(=O)N[C@@H](CCCNC(=N)N)C(=O)N[C@H](C(=O)O)C(C)C)[C@@H](C)O
Stability (T1/2 (h)) (HLA-A02.01 [7]): 21.7 h
detected by mass spectrometry (peptide eluted from HLA-peptide complexes) [1, 11]: detected

CSCC[C@H](NC(=O)[C@H](C)NC(=O)[C@@H](N)CO)C(=O)N[C@H](C(=O)N[C@H](C(=O)N[C@@H](CO)C(=O)N[C@@H](CO)C(=O)N[C@@H](CO)C(=O)N[C@@H](CCC(N)=O)C(=O)N[C@@H](CCCCN)C(=O)O)[C@@H](C)O)[C@@H](C)O (H-SAMTTSSSQK-OH; N-terminus and C-terminus assumed)
IC50 (HLA-A11.01; [12]): 15.8 nM
IC50 (HLA-A03.01 [9]; [10]): 15.7 nM

CC(C)C[C@H](NC(=O)[C@H](C)NC(=O)[C@@H]1CCCN1C(=O)[C@@H](NC(=O)[C@H](CCCCN)NC(=O)[C@H](CCCCN)NC(=O)[C@H](CC(C)C)NC(=O)[C@@H](N)CO)C(C)C)C(=O)N[C@@H](CCCCN)C(=O)O (H-SLKKVPALK-OH; N-terminus and C-terminus assumed)
IC50 (HLA-A11.01; [12]): 129 nM
IC50 (HLA-A03.01 [9]; [10]): 4.4 nM

CC(C)C[C@H](NC(=O)[C@H](CC(=O)O)NC(=O)[C@H](CO)NC(=O)[C@H](CCC(N)=O)NC(=O)[C@H](CCC(N)=O)NC(=O)[C@H](CCC(N)=O)NC(=O)[C@H](CCC(N)=O)NC(=O)[C@H](CCC(N)=O)NC(=O)[C@@H](N)Cc1ccc(O)cc1)C(=O)O (H-YQQQQQSDL-OH; N-terminus and C-terminus assumed)
IC50 (HLA-A02.01 [2]; Observed Affinity (IC50): 799 nM
IC50 (HLA-B08.01 [3]): 18900 nM
Stability (T1/2 (h)) (HLA-A02.01 [7]): 0.4 h
